Here are results for two compounds from ChEMBL document CHEMBL1153535, “Nitazoxanide kills replicating and nonreplicating Mycobacterium tuberculosis and evades resistance” (J Med Chem, 2009).

Values after ≈ are worked out from the molar mass of the structure shown.

For series [1], the system named is Mycobacterium tuberculosis. Nature of the series: Antimycobacterial activity against Mycobacterium tuberculosis H37Rv in 7H9 liquid medium after 7 days. The settings on record: 168 h. The series is classed as functional.
A short description of series [2]: Cmax in human plasma at 500 mg, po. The series is classed as ADME, organism-based. Also on record: dose 500 mg, route oral.
Another series relates to Giardia. Kind of series: Antimicrobial activity against Giardia. The class given is functional, organism-based.
Series [3] has as its system Mycobacterium tuberculosis. Kind of series: Antimycobacterial activity against Mycobacterium tuberculosis H37Rv in 7H11 solid medium after 7 days. The series is classed as functional. The settings on record: 168 h.
The subject of series [4] is Mycobacterium tuberculosis. Kind of series: Antimycobacterial activity against replicating Mycobacterium tuberculosis H37Rv at 62 ug/mL assessed as reduction of log10CFU/mL. The class given is functional, organism-based. The settings on record: TDE = time-dependent effect.
In series [5] the test system is Mycobacterium tuberculosis. Nature of the series: Antimycobacterial activity against replicating Mycobacterium tuberculosis H37Rv at 125 ug/mL assessed as reduction of log10CFU/mL after 4 days relative to control. The series is classed as functional.
In the next series the test system is Cryptosporidium. Kind of series: Antimicrobial activity against Cryptosporidium. The series is classed as functional.
Series [6] relates to Mycobacterium tuberculosis. Kind of series: Antimycobacterial activity against replicating Mycobacterium tuberculosis H37Rv at 62 ug/mL assessed as reduction of log10CFU/mL after 4 days. The class given is functional.
Series [7] concerns Mycobacterium tuberculosis. Kind of series: Antimycobacterial activity against non-replicating Mycobacterium tuberculosis H37Rv at 62 ug/mL assessed as reduction of log10CFU/mL after 6 days relative to control. The series is classed as functional.
In series [8] the test system is Mycobacterium tuberculosis. Nature of the series: Antimycobacterial activity against Mycobacterium tuberculosis H37Rv after 8 days in presence of 0.04 to 5 mg/mL of BSA. The class given is functional. The settings on record: 192 h.
The subject of series [9] is Mycobacterium tuberculosis. Nature of the series: Antimycobacterial activity against replicating Mycobacterium tuberculosis H37Rv at 62 ug/mL assessed as reduction of log10CFU/mL after 10 days. The class given is functional.
Series [10] relates to Mycobacterium tuberculosis. Kind of series: Antimycobacterial activity against non-replicating Mycobacterium tuberculosis H37Rv at 125 ug/mL assessed as reduction of log10CFU/mL after 4 days relative to control. The series is classed as functional.
The test system of series [11] is Mycobacterium tuberculosis. Kind of series: Antimycobacterial activity against Mycobacterium tuberculosis H37Rv after 8 days in absence of BSA. The class given is functional. The settings on record: 192 h.

As for `O=C(Nc1ncc([N+](=O)[O-])s1)c1ccccc1O` [TIZOXANIDE], the MIC in [1] is 16 µg/mL (≈ 60.3 µM). For the same compound, in series [2], the concentration peaked (Cmax) at 10600 ng/mL.

In the case of `CC(=O)Oc1ccccc1C(=O)Nc1ncc([N+](=O)[O-])s1` [NITAZOXANIDE], in the series on Giardia, the IC50 was 2.5 µg/mL (≈ 8.14 µM). In addition, the MIC was determined as 16 µg/mL (≈ 52.1 µM) in series [1]; 16 µg/mL (≈ 52.1 µM) in [3]; 10 µg/mL (≈ 32.5 µM) with Cryptosporidium; 16 µg/mL in [8]; 1 µg/mL (≈ 3.25 µM) in [11]. Moreover, the Activity entry in [4] is “tde”; in [5] it was 2; in series [6] it was 1; in [7], “>=5”; in series [9], 3.5; in series [10], 6.
